In BindingDB's records for doi:10.7270/Q23F4N3R (Burnham Center For Chemical Genomics, 2011) one finds IC50 data, which are given here for 26 compounds.

SMILES strings stand for the structures.

For orientation: IC50 means the concentration at which inhibition is half-maximal.

One assay in a line: HK1 enzyme inhibitors – biochemical, selectivity assay for HKDC1 inhibitor project, dose response (AID 504763).
Conditions: not given
In the case of `CC(=O)N(C1=C(Cl)C(=O)c2ccccc2C1=O)c1ccc(C(=O)O)cc1` [MLS001196720], the half-maximal inhibitory concentration (IC50) was determined as 8.68 µM.

`O=C(O)COc1ccc(C=NNC(=O)c2ccc(-c3csc(Nc4ccc(Cl)cc4)n3)cc2)cc1` [2-[4-[[[4-[2-(4-chloroanilino)-1,3-thiazol-4-yl]benzoyl]hydrazinylidene]methyl]phenoxy]acetic acid] came in with an IC50 of over 80 µM.

In the case of `CCOC(=O)c1c(-n2c(C)cc(C=C3C(=O)NC(=S)NC3=O)c2C)sc2c1CCCC2` [ethyl 2-{3-[(4,6-dioxo-2-thioxotetrahydro-5(2H)-pyrimidinylidene)methyl]-2,5-dimethyl-1H-pyrrol-1-yl}-4,5,6,7-tetrahydro-1-benzothiophene-3-carboxylate], the IC50 was over 80 µM.

Turning to `COc1cc(C2c3c([nH]c(=O)[nH]c3=O)Nc3ccc4ccccc4c32)cc(OC)c1OC` (stereo unspecified) [MLS000663320], the IC50 is over 80 µM.

`O=C1C(Cl)=C(Oc2ccccc2)C(=O)c2ccccc21` [2-chloro-3-phenoxynaphthalene-1,4-dione] yielded an IC50 of 10 µM.

With `CCn1cc(C(=O)NCc2ccc3c(c2)OCO3)c2cc(OC)c(OC)cc2c1=O` [2-ethyl-1-keto-6,7-dimethoxy-N-piperonyl-isoquinoline-4-carboxamide], the IC50 is 18.9 µM.

In turn, `CC(=O)Nc1ccc(NC2=CC(=NS(=O)(=O)c3cccs3)c3ccccc3C2=O)cc1` [SMR000313158] displayed a 50% inhibitory concentration (IC50) of 4.2 µM.

`CCOC(=O)c1ccc(NC2=CC(=O)C(=O)c3ccccc32)cc1` gave an IC50 of over 80 µM.

For `O=C(O)c1ccc2ncsc2c1` [SMR000372672], the IC50 is over 80 µM.

For the compound `CN(C)Cc1cc(O)c(CN(C)C)cc1O` [2,5-bis[(dimethylamino)methyl]benzene-1,4-diol], the half-maximal inhibitory concentration (IC50) is over 80 µM.

`CCCc1nc2oc3c(OC)ncnc3c2c2c1COC(C)(C)C2` [MLS000559436] showed a 50% inhibitory concentration (IC50) of 18.5 µM.

With `COc1cc2c(cc1OC)-c1c(OC)c(OC)c(OC)c3ccnc(c13)C2=O` [MLS000574936], the IC50 turned out to be 10.1 µM.

The compound `CNCc1ccccc1Sc1cc(O)ccc1O` [(Z)-2-butenedioic acid;2-[[2-(methylaminomethyl)phenyl]thio]benzene-1,4-diol] returned an IC50 of 4.58 µM.

With `Cc1[nH]c2ccccc2c1C1=CC(=O)C=CC1=O`, half-maximal inhibition (IC50) was put at 9.71 µM.

Compound `O=C1C=C(N2CCOCC2)c2ccccc2C1=O` [SMR000516584] returned an IC50 of 1.27 µM.

On to `NC1=C(Br)C(=O)c2ncccc2C1=O`, for which the IC50 came to 13.8 µM.

Consider `Oc1ccc(O)c(Cc2nc3ccccc3[nH]2)c1` [SMR000298430], for which half-maximal inhibition (IC50) was put at 7.03 µM.

`COc1ncnc2c1oc1nc(C(C)C)c3c(c12)CC(C)(C)OC3` [MLS000084533] came in with an IC50 of 12.5 µM.

The compound `COC(=O)C1CN(C#N)N(c2ccc(Cl)cc2)C12c1ccccc1-c1ccccc12` (stereo unspecified) [2'-(4-chlorophenyl)-1'-cyano-4'-spiro[fluorene-9,3'-pyrazolidine]carboxylic acid methyl ester] returned an IC50 of over 80 µM.

Take `Cc1ccc(SC2=C(Sc3ccc(C)cc3)C(=O)c3ccccc3C2=O)cc1` [MLS000756557]: the IC50 came out at 20 µM.

Regarding `N=C(NCc1ccc2c(c1)OCO2)NC(=O)c1ccccc1` [SMR000293067], the IC50 is over 80 µM.

As to `O=C(NC1=CC(=O)c2ccccc2C1=O)c1ccccc1` [N-(1,4-dioxo-2-naphthalenyl)benzamide], it took 4.01 µM to reach half-maximal inhibition (IC50).

Staying with this assay, now noted: inactive by the depositor's call.
`COc1ccc(S(=O)(=O)Nc2cc(SCC(=O)O)c(O)c3ccccc23)cc1` [[(1-hydroxy-4-{[(4-methoxyphenyl)sulfonyl]amino}-2-naphthyl)thio]acetic acid] yielded an IC50 of 63.3 µM.

As for `Cc1oc2c(c1C(=O)c1ccccc1)C(=O)C(=O)c1ccccc1-2` [2-methyl-3-(phenylcarbonyl)benzo[g][1]benzofuran-4,5-dione], inhibition was half-maximal at 78.3 µM (IC50).

Compound `COC(=O)c1ccc(NCc2cc(O)ccc2O)cc1` [4-[(2,5-dihydroxyphenyl)methylamino]benzoic acid methyl ester] displayed a 50% inhibitory concentration (IC50) of 21.3 µM.

In the case of `COc1ccc(OC)c2nc(O)c(CCNC(=O)c3cc4ccccc4o3)cc12` [SMR000018515], the IC50 was determined as 23.8 µM.
